Measurements from PMC12419465, “Photoresponsive molecular tweezers modulate Taspase 1 activity” (RSC Chemical Biology, 2025).
Like-named read-outs stand apart in the source and are kept apart here.

Target: T1, wildtype Taspase 1 (Homo sapiens, UniProt Q9H6P5)
T1 sequence (Q9H6P5 1-233 limits assumed): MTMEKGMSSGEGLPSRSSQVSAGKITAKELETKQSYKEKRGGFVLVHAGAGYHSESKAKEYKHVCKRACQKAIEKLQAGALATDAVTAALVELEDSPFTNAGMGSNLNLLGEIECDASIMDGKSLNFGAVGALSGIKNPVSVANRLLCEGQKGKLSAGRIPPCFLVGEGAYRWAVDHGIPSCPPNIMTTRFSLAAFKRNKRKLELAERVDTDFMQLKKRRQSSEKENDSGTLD
T1 sequence (Q9H6P5 234-420 limits assumed): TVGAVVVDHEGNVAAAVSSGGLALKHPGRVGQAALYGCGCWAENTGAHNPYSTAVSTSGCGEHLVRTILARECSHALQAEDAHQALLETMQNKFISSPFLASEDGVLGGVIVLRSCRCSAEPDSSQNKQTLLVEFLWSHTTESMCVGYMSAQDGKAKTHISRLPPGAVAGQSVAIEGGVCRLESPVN
Test: Recombinant cleavage assay with GST-MLL2700–2850-GFP-His substrate
Assay type: biochemical
Conditions: for IC50: ligand conc. 10 - 100 µM, 200 nM Taspase 1, 5 µM substrate, n = 3, read-out: IC50 TW (recombinant cleavage, full-length protein); for Difference in inhibitory activity between E and Z isomers (times greater potency of E isomer): particularly at 50 μM
Description: The recombinant cleavage assay employing the recombinant fusion protein GST-MLL2700–2850-GFP-His, which contains the CS2 cleavage site of the Mixed-lineage leukemia (MLL) protein as a substrate for Taspase 1, was performed as described.[9,10]
Given that Taspase 1's active site is positioned directly at the base of the loop harboring the bipartite NLS (Fig. 1A, and Fig. S1), it is reasonable to expect that our photoswitchable tweezer constructs, which recognize this signal, might also influence proteolytic activity - similar to the inhibition observed with our “first-generation” multivalent ligands.[10] In principle the presence of a sterically demanding artificial ligand may hinder or even completely block substrate binding and subsequent cleavage. To assess this, we employed a well-established in vitro cleavage assay using a recombinant, truncated fusion protein harboring the second cleavage site (CS2) of the Mixed Lineage Leukemia 1 (MLL1) protein, a bona fide Taspase 1 substrate.[39] In this assay, the cleaved and uncleaved substrate fractions of the GST-MLL2700–2850-GFP-His substrate were separated on a Coomassie-stained gel, and signal intensities of the different cleavage bands were quantified (Fig. 7, Fig. S8, and Fig. S9). The addition of recombinant, proteolytically active Taspase 1 (200 nM) led to efficient substrate cleavage, which was inhibited by all photoswitchable tweezer constructs in a concentration-dependent manner. IC50 values for the full series of switchable tweezer constructs ranged from 20 to 50 μM, with measurements taken separately for both E and Z isomers Fig. (S9).
Fig. 7 Switchable tweezer constructs interfere with Taspase 1 proteolytic activity. Cleavage assay utilizing the cleavage site CS2 from the natural substrate MLL (GST-MLL2700–2850-GFP-His) and active wildtype Taspase 1. Inhibition of proteolysis was evaluated by the relative amount of uncleaved substrate. Briefly, 5 μM recombinant substrate were incubated with 200 nM wildtype Taspase 1-His and increasing concentrations of TWAAP0-4 (10 - 100 μM), pre-irradiated with either UV light (365 nm, violet), or green light (520 nm, green), or solvent only. Proteolytic activity in solvent-treated samples was set to 100%, and data from TWAAP-treated samples were normalized accordingly. IC50 values were determined by densitometric quantification of the cleavage bands from the gels shown in Fig. S9, followed by nonlinear curve fitting. These values were also used to generate the summary bar plots shown on the right. Data are shown as the mean ± SD from three independent experiments. Composed with https://BioRender.com.
Figure S8. Photoswitchable TWAAP constructs interfere with Taspase 1’s proteolytic activity.
Cleavage assay utilizing the cleavage site CS2 from the natural substrate MLL (GST -MLL2700-2850-GFP-His, 70 kDa) and active wildtype Taspase 1. Inhibition of proteolysis was evaluated by the relative amount of uncleaved in relation to cleaved substrate (50 kDa and 20 kDa, respectively). Briefly, 5 µM recombinant substrate were incubated with 200 nM wildtype Taspase 1-His and increasing concentrations (10 - 100 µM) of indicated TWAAP irradiated with UV (365 nm, left gel panels) or green light (520 nm, right gel panels). Solvent-treated samples (referred to as untreated, un.) served as reference, and as additional controls, Taspase 1 (-T) was omitted or only Taspase 1 (TASP1) was applied. Representative images of three independent experiments are shown. Composed with […]
Figure S9. Photoswitchable TWAAB constructs interfere with Taspase 1’s proteolytic activity. Cleavage assay utilizing the cleavage site CS2 from the natural substrate MLL (GST -MLL2700-2850-GFP-His, 70 kDa) and active wildtype Taspase 1. Inhibition of proteolysis was evaluated by the relative amount of uncleaved in relation to cleaved substrate (50 kDa and 20 kDa, respectively).
Briefly, 5 µM recombinant substrate were incubated with 200 nM wildtype Taspase 1-His and […]

Row | SMILES | IC50 (E isomer) [µM] | IC50 (Z isomer) [µM] | Difference in inhibitory activity between E and Z isomers (times greater potency of E isomer)
1 | Cc1nn(-c2ccc(-n3cc(CCOP(=O)(O)Oc4c5c(c(OP(=O)(O)O)c6c4C4CC6c6cc7c(cc64)C4CC7c6ccccc64)C4CC5c5cc6c(cc54)C4CC6c5ccccc54)nn3)cc2)c(C)c1N=Nc1ccc(-n2cc(CCOP(=O)(O)Oc3c4c(c(OP(=O)(O)O)c5c3C3CC5c5cc6c(cc53)C3CC6c5ccccc53)C3CC4c4cc5c(cc43)C3CC5c4ccccc43)nn2)cc1 [TWAAP0] | 25.9 | 44.6 | 1.5–1.7 times
2 | Cc1nn(Cc2cn(CCOP(=O)(O)Oc3c4c(c(OP(=O)(O)O)c5c3C3CC5c5cc6c(cc53)C3CC6c5ccccc53)C3CC4c4cc5c(cc43)C3CC5c4ccccc43)nn2)c(C)c1N=Nc1ccc(-c2cn(CCOP(=O)(O)Oc3c4c(c(OP(=O)(O)O)c5c3C3CC5c5cc6c(cc53)C3CC6c5ccccc53)C3CC4c4cc5c(cc43)C3CC5c4ccccc43)nn2)cc1 [TWAAP2] | 17.5 | 25.4 | no difference
3 | Cc1nn(-c2ccc(-c3cn(CCOP(=O)(O)Oc4c5c(c(OP(=O)(O)O)c6c4C4CC6c6cc7c(cc64)C4CC7c6ccccc64)C4CC5c5cc6c(cc54)C4CC6c5ccccc54)nn3)cc2)c(C)c1N=Nc1ccc(-c2ccc(-c3cn(CCOP(=O)(O)Oc4c5c(c(OP(=O)(O)O)c6c4C4CC6c6cc7c(cc64)C4CC7c6ccccc64)C4CC5c5cc6c(cc54)C4CC6c5ccccc54)nn3)cc2)cc1 [TWAAP3] | 49.4 | 41.9 | no difference
4 | Cc1nn(-c2ccc(C#Cc3ccc(-c4cn(CCOP(=O)(O)Oc5c6c(c(OP(=O)(O)O)c7c5C5CC7c7cc8c(cc75)C5CC8c7ccccc75)C5CC6c6cc7c(cc65)C5CC7c6ccccc65)nn4)cc3)cc2)c(C)c1N=Nc1ccc(C#Cc2ccc(-c3cn(CCOP(=O)(O)Oc4c5c(c(OP(=O)(O)O)c6c4C4CC6c6cc7c(cc64)C4CC7c6ccccc64)C4CC5c5cc6c(cc54)C4CC6c5ccccc54)nn3)cc2)cc1 [TWAAP4] | 24.7 | 37.9 | 1.5–1.7 times
5 | O=P(O)(O)Oc1c2c(c(OP(=O)(O)OCCn3cc(-c4ccc(N=Nc5ccc(-c6cn(CCOP(=O)(O)Oc7c8c(c(OP(=O)(O)O)c9c7C7CC9c9cc%10c(cc97)C7CC%10c9ccccc97)C7CC8c8cc9c(cc87)C7CC9c8ccccc87)nn6)cc5)cc4)nn3)c3c1C1CC3c3cc4c(cc31)C1CC4c3ccccc31)C1CC2c2cc3c(cc21)C1CC3c2ccccc21 [TWAB1] | 22.3 | 17.9 | no difference
